Assays:
[1] = analogous water-soluble acids of the prior-art strong acids; cited from earlier work
[2] = pH of 1N NaCl solution after contact with the organic acid (indirect acid strength test); conditions: 1 mol acid at 0.2 molar or higher in organic solvent contacted with equivalent NaCl in 1N aqueous solution
Excerpt: The stronger the organic acid, the more the reaction moves in the right direction and the lower is the pH of the formed aqueous solution.

Structure (SMILES) | pKa [1] | pH of the sodium chloride solution [2]
O=C(O)c1c(Cl)ccc(Cl)c1C(=O)O [3,6-dichlorophtalic] | 1.46 | 
CCCCCCCCCCCC(=O)O [Lauric, lauric acid] |  | > 5
